Results: patent US20260274828A1, “BROAD SPECTRUM ANTIFUNGAL KETO-ALKYL-PYRIDINIUM COMPOUNDS” (priority 2023, published 2026)
Like-named read-outs stand apart in the source and are kept apart here.

Legend:
C. albicans [1] = test: Planktonic MIC, CLSI guidelines; assay type: cell-based, Candida albicans; conditions: data not shown
C. albicans [2] = test: Planktonic MIC, CLSI guidelines; assay type: cell-based, Candida albicans
Procedure: (§1) Minimum inhibitory concentrations were determined using CLSI guidelines (Beattie & Krysan, 2021; Wiederhold, 2021). All yeasts were cultured overnight in 3 mL YPD at 30° C., then washed twice in sterile PBS. Two-fold serial dilutions of each compound were prepared in RMPI+MOPS pH 7 (Gibco RPMI 1640 with L-glutamine [11875-093] and 0.165M 352 MOPS), then 1×10^3 cells were added per well. Plates were incubated at 37° C. for 24 hours (C. albicans and S. cerevisiae) or 72 hours (C. neoformans). For A. fumigatus and F. oxysporum wells were inoculated with 1.25×10^4 conidia. Plates were incubated at 37° C. for 48 hours for A. fumigatus and 72 hours for F. oxysporum. All MICs are defined as the well with complete growth inhibition as determined by visual inspection with the exception of MICs of fluconazole against C. albicans where the MIC is defined as at least 50% reduction in growth compared to the control.

S. aureus = test: Antibacterial MIC; assay type: cell-based; conditions: Staphylococcus aureus; strain Newman
P. aeruginosa = test: Antibacterial MIC; assay type: cell-based, Pseudomonas aeruginosa
A. terreus = test: Planktonic MIC, CLSI guidelines; assay type: cell-based; conditions: Aspergillus terreus; strain CFF S023
C. neoformans = test: Planktonic MIC, CLSI guidelines; assay type: cell-based; conditions: Cryptococcus neoformans
Procedure: as §1

C. glabrata = test: Planktonic MIC, CLSI guidelines; assay type: cell-based; conditions: Nakaseomyces glabratus; strain KK2001
Procedure: as §1

F. oxysporum = test: Planktonic MIC, CLSI guidelines; assay type: cell-based; conditions: Fusarium oxysporum; strain DUMC Fo
Procedure: as §1

A. fumigatus = test: Planktonic MIC, CLSI guidelines; assay type: cell-based; conditions: Aspergillus fumigatus, read-out: MIC
Procedure: as §1

red blood cells = test: Red blood cell lysis assay; assay type: cell-based, sheep; conditions: 2 h, normalized to max lysis by triton-x
Procedure: Hemolysis assays were performed with defibrinated sheep's blood (Lampire, Cat #7239001). Blood was washed three times with PBS then resuspended to about 50% hematocrit in PBS. A two-fold dilution series of the compounds in 200 μL PBS with equal DMSO concentration across the series, then red blood cells were added with a final concentration of 2% hematocrit. Cells were incubated at RT for 2 hours in a v-bottom microtiter plate, then plates were spun down and supernatant was transferred to a flat bottom microtiter plate for absorbance measurement at 570 nm. Compounds were tested in technical triplicate in at least two independent assays performed on different days.

C. auris 0381 biofilms = test: Biofilm phase antifungal activity assay (XTT reduction); assay type: cell-based, Candida auris
Procedure: (§2) These assays were performed as previously described (Mao et al., 2020; Ramage et al., 2001). C. albicans and C. auris, overnight cultures were washed in sterile PBS and adjusted to 1×10^6 CFU/mL in RPMI+MOPS pH 7. 100 μL cells were added to each well and incubated at 37° C. for 24 hours. A two-fold dilution series of the compounds was prepared in RPMI+MOPS with equal vehicle concentrations. Media was removed and biofilms were gently washed with PBS, then 200 μL of each drug dilution was added to wells and plates were incubated at 37° C. for an additional 24 hours. Media was removed and biofilms were gently washed with PBS, then 100 μL of XTT solution (0.83 mg/mL XTT sodium salt [Sigma, Cat #X4626]+32 μg/mL PMS [Sigma, Cat #P9625] in PBS) was added to each well. Plates were incubated at 37° C. for 30 minutes, then the absorbance was measured at 490 nm.
(§3) The metabolic activity of the biofilms was then assayed using the standard XXT reduction assay (Ramage et al., 2001). […] The biofilm activity of compound A was reduced by 4-fold relative to planktonic growth (MIC 4 μg/mL, Table 2).

C. auris = test: Ex vivo porcine skin model of Candida auris colonization
Procedure: The collection of porcine skin samples was conducted under protocols approved by the University of Wisconsin-Madison Institutional Animal Care and Use Committee in accordance with published National Institutes of Health (NIH) and United States Department of Agriculture (USDA) guidelines. Excised skin was cleaned and shaved as described previously (Johnson et al., 2022). Full-thickness samples were obtained by 12 mm punch and placed in 12-well plates containing 3 mL Dulbecco's Modified Eagle Medium (DMEM) (Lonza, Walkersville, MD, USA) supplemented with 10% fetal bovine serum (FBS) (Atlanta biologicals, Lawrenceville, GA, USA), penicillin (1,000 U/mL), and streptomycin (1 mg/mL) (Corning, Manassas, VA, USA) for 6 hours. Tissues were rinsed in DBPS and moved to semi-solid media (6:4 ratio of 1% agarose (BIO-RAD, Hercules, CA, USA) in DPBS:DMEM with 10% FBS). Paraffin wax was applied around the edge of the skin and 10 μL C. auris suspended in synthetic sweat medium at 10^7 cells/mL was applied. Samples were incubated at 24 hours and compound A (8 μg/mL or 16 μg/mL) in synthetic sweat medium was applied. After 24 hours a sterile swab was used to remove compound from skin surface. Samples were vortexed in DPBS and plated on YPD+chloramphenicol to assess viable burden.

[3] = system: C. albicans SC5314 biofilms; test: Biofilm phase antifungal activity assay (XTT reduction); assay type: cell-based, Candida albicans
Procedure: as §2, §3

With `Nc1cc[n+](CC(=O)c2ccc3c(c2)OC(c2ccccc2)(c2ccccc2)O3)cc1.[Cl-]` [Compound A] the “change in MIC with glycerol instead of glucose as carbon source” value (C. albicans [1]) was “not observed”, the MIC (C. albicans [2]; Candida albicans, strain SC5314, read-out: MIC) was 4 µg/mL and the MIC (C. albicans [2]; Candida albicans, strain TWO #15, fluconazole-resistant, read-out: MIC) was 4 µg/mL. The MIC (C. albicans [2]; strain TWO #17, fluconazole-resistant) was 4 µg/mL, the MIC (S. aureus) was 32 µg/mL and the “activity compared to cetylpyridinium chloride” value (P. aeruginosa; P. aeruginosa) was “more active”. For the same molecule, the MIC (P. aeruginosa; Pseudomonas aeruginosa, strain PAO1) was 64 µg/mL, the MIC (A. terreus) was 2 to 4 µg/mL and the MIC (C. neoformans; strain DUMC 118.00) was 4 µg/mL. The MIC (C. neoformans; strain DUMC 122.01) was 4 µg/mL, the MIC (C. neoformans; strain H99) was 4 µg/mL and the MIC (C. glabrata) was 4 µg/mL. The MIC (F. oxysporum) was 16 µg/mL, the MIC (A. fumigatus; strain AF293) was 2 µg/mL and the MIC (A. fumigatus; strain CEA10) was 32 µg/mL. The MIC (A. fumigatus; strain CFF S001) was 64 µg/mL, the MIC (A. fumigatus; strain CFF S003) was 4 µg/mL and the MIC (A. fumigatus; strain CFF S007) was 64 µg/mL. The MIC (A. fumigatus; strain CFF S008) was 64 µg/mL, the MIC (A. fumigatus; strain CFF S014) was 8 µg/mL and the MIC (A. fumigatus; strain CFF S029) was 4 µg/mL. For the same molecule, the MIC (A. fumigatus; strain Cas^R) was 32 µg/mL, the MIC (A. fumigatus; strain SPF98) was 64 µg/mL and the “red blood cell lysis LD50” value (red blood cells) was 26.9 µg/mL. For the same molecule, the “activity during planktonic and inanimate-substrate biofilm growth” value (C. auris 0381 biofilms) was “comparable activity”, the “reduction of fungal burden of colonized porcine skin” value (C. auris; 8 μg/mL, 24 hours after a single treatment) was “about 1 log10” and the “fungal burden of colonized porcine skin” value (C. auris; 16 μg/mL versus 8 μg/mL, 24 hours) was “not reduced further”. The “reduction of C. auris colonization of skin” value (C. auris; 8 or 16 μg/mL, 24 hours) was “about 1 log10 CFU”, the IC50 ([3]; Candida albicans, SC5314, established 24 h biofilm, treated 24 h, XTT, read-out: biofilm metabolic activity IC50) was 18.4 µg/mL and the “reduction of biofilm activity relative to planktonic growth” value ([3]; IC50 versus planktonic MIC) was 4 fold.
